From US20080293699A1, “Inhibitors of thapsigargin-induced cell death” (priority 2007, published 2008) come the findings set out here.

This assay has as its system CSM14.1 cells. Description: Primary HTS assay: ATP content (ATPlite) of undifferentiated CSM14.1 cells challenged with thapsigargin. It counts as cell-based, rat. Particulars: for IC50: thapsigargin-induced death of undifferentiated CSM14.1, ATP content. In outline:
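Undifferentiated CSM14.1 cells, 3,000/well, cultured overnight at 32 °C, then test compounds at ~15 μg/mL final (1% DMSO) added. Thapsigargin ~15 μM final given after 2 h; ATPlite luminescence read after 24 h as survival surrogate, with 100 μM Salubrinal as maximum and DMSO as minimum.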

The mark [1] stands for this setting: one value given, read-out: IC50.
The mark [2] stands for this setting: first assay, read-out: IC50 (μM), first value.
Setting [3] is: second assay (value in bold), read-out: IC50 (μM), value from a second assay.

Each structure is given as a SMILES string. Where two headings read alike, the source gives them in different places.

As to `CCN(CC)c1ccc(C2Nc3ccccc3NC3=C2C(=O)CC(c2ccccc2)C3)cc1` (centres unmarked) [Compound 5962123, 6-(4-diethylaminophenyl)-9-phenyl-5,6,8,9,10,11-hexahydrobenzo[c][1,5]benzodiazepin-7-one], for the setting “readout ATP & Annexin, CSM 14.1, compound ≦25 μM”, the “Cytoprotective activity, stimulus Thapsigargin (Result)” value is listed as “+ (+indicates ≧50% rescue of cell viability relative to untreated cells not exposed to thapsigargin at compound concentration of ≦25 μM)”. Besides, the IC50 under setting [1] was found to be 7.5 ± 0.857 µM.

In the case of `COc1ccc(C2CC(=O)C3=C(C2)Nc2ccccc2NC3c2ccccc2C(F)(F)F)cc1OC` (centres unmarked) [Compound 6237735], the IC50 runs as follows: under setting [2], 17.2 ± 0.471 µM; under setting [1], 12.5 ± 0.186 µM; under setting [3], 12.5 ± 0.186 µM.

For the compound `COc1ccc(C2CC(=O)C3=C(C2)Nc2ccccc2NC3c2cccc(Oc3ccccc3)c2)cc1OC` (centres unmarked) [Compound 6239507], the IC50 is 13.9 ± 0.26 µM under setting [2], 10.2 ± 1.62 µM under setting [1] and 10.2 ± 1.62 µM under setting [3].
